This is an account of results in publication PMC5237291, “Sigma-2 receptor agonist derivatives of 1-Cyclohexyl-4-[3-(5-methoxy-1,2,3,4-tetrahydronaphthalen-1-yl)propyl]piperazine (PB28) induce cell death via mitochondrial superoxide production and caspase activation in pancreatic cancer” (BMC Cancer, 2017).

Series [1] relates to Panc02 cells. Put plainly: MTT cell viability, Panc02. As to conditions: Mus musculus, 24 h treatment, viability relative to vehicle. The class given is cell-based. As for the experimental part: (§1) Determination of cell growth was performed using the MTT assay at 24 h. On day 1, pancreatic cancer cell lines were plated at a density of 2 × 10^4 cells/well in black clear-bottom 96-well plates for 24 h prior to treatment in a volume of 100 μL. On day 2, the cells were treated for 24 h with the various drugs concentration (1 μM-100 μM). Untreated cells served as a control. The various drug-solvents (EtOH, DMSO) were added in each control to evaluate a possible solvent cytotoxicity. After the established incubation time with drugs (24 h), MTT (0.5 mg/ml) was added to each well, and after 3–4 h incubation at 37 °C, the supernatant was removed. The formazan crystals were solubilized using 100 μl of DMSO/EtOH (1:1) and the absorbance values at 570 and 630 nm were determined on the multi-mode microplate reader (BioTek instruments, Winooski, VT). Different drug concentrations were assayed in triplicates.
(§2) Statistical analyses and data plotting were performed using GraphPad Prism software version 6.03 (San Diego, CA). Results were expressed as mean ± standard error of the mean of at least 3 biological replicates. EC50 values were calculated by curve fitting normalized viability versus drug concentration. Differences in viability, caspase-3 activity, and tumor volume were analyzed using two-way ANOVA to identify differences and confirmed with paired two tailed t-tests. Mann-Whitney test was used to compare the difference in CBC and biochemistry analyses. Kaplan-Meier survival analyses were used to assess differences between treatment groups and were compared using a log-rank test. A p-value < 0.05 was considered significant for all analyses.

The next series has as its system KP02 cells. Put plainly: MTT cell viability, KP02. Conditions: 24 h treatment, viability relative to vehicle. The class given is cell-based, mouse. As for the experimental part: as §1, §2
In another series the test system is KCKO cells. Put plainly: MTT cell viability, KCKO. The class given is cell-based. Conditions: Mus musculus, 24 h treatment, viability relative to vehicle. The protocol: as §1, §2
Another series has as its system MIAPaCa-2 cells. Put plainly: MTT cell viability, MIAPaCa-2. Format: cell-based. Conditions: Homo sapiens, MIA PaCa-2, 24 h treatment, viability relative to vehicle. The protocol:
as §1, §2

For series [2], the system named is BxPC3 cells. Put plainly: MTT cell viability, BxPC3. Format: cell-based, human. Conditions: 24 h treatment, viability relative to vehicle. The protocol:
as §1, §2

For the next series, the system named is AsPC-1 cells. Put plainly: MTT cell viability, AsPC-1. As to conditions: Homo sapiens, ASPC1, 24 h treatment, viability relative to vehicle. The class given is cell-based. The protocol: as §1, §2
A further series has as its system Panc-1 cells. Put plainly: MTT cell viability, Panc-1. Format: cell-based. Conditions: Homo sapiens, 24 h treatment, viability relative to vehicle. As for the experimental part: as §1, §2
Another series has as its system caspase-3. Put plainly: Caspase-Glo caspase-3 activity in Panc02 cells. The class given is cell-based, mouse. The protocol: Caspase-3 activity was measured in Panc02 cell lines with a Caspase-Glo® Assay Systems (Promega) according to protocol in which the reagent contain luminogenic caspase substrates that cleaved by activated caspase. […] The contents were then mixed using plate shaker for 30 s, and incubated at room temperature for 90 min. Luminescence signal was measured using multi-mode microplate reader (BioTek). Assay was performed in triplicates, and caspase activity was plotted compared cells treated with DMSO as a control.

The subject of a further series is AsPC1 cells. Put plainly: MitoSOX Red mitochondrial superoxide by flow cytometry, AsPC1. Conditions: 50 μM, 2 h. The class given is cell-based, human. As for the experimental part:
(§3) MitoSOX™ Red reagent is a novel fluorogenic dye specifically targeted to mitochondria in live cells. Oxidation of MitoSOX™ Red reagent by superoxide produces red fluorescence. Mitochondrial superoxide is generated as a byproduct of oxidative phosphorylation. […] MitoSOX™ Red reagent is readily oxidized by superoxide but not by other ROS- or reactive nitrogen species (RNS)–generating systems. Panc02, AsPC-1, KP-2 or BxPC3 cells were seeded into 12-well plates 24 h before treatment with sigma-2 ligands (50 μM) for 2 h at 37°C in presence or absence of α-tocopherol (100 μM) followed by staining with MitoSOX™ Red (5 μM). Two hours after red dye addition, the cells were washed twice with PBS and harvested with trypsin/EDTA buffer. The cells were washed twice with PBS before analysis with FACSCalibur (BD Bioscience, San Jose, CA). The oxidation product of MitoSOX™ Red by mitochondrial superoxide fluoresces with an emission maximus of 580 nm and was detected in the FL3 channel. Experiment was performed in triplicates.
Background: A flow cytometer gives signals particle by particle.

Series [3] deals with BxPC3 cells. Put plainly: MitoSOX Red mitochondrial superoxide by flow cytometry, BxPC3. As to conditions: 50 μM, 2 h. Format: cell-based, human. As for the experimental part:
as §3

Another series concerns Panc02 tumors. Put plainly: In vivo tumor growth and survival, Panc02 tumors in C57BL/6 mice. As to conditions: for Effect on tumor volume (in words): daily i.p. treatment, compared to vehicle or gemcitabine. The protocol: In this pre-clinical model, we utilized the Panc02 cell line, which is weakly immunogenic in C57BL/6 mice and aggressive with a subcutaneous inoculum of 1 × 10^5 cells being lethal within 6–8 weeks. In vivo studies with mice were performed to compare the effect of sigma-2 ligands with gemcitabine. Mice treated with vehicle alone (a mixture of 5% DMSO, 5% EtOH, and 10% Cremophor in H2O) served as the control cohort. Female C57BL/6 mice (10 weeks old, National Cancer Institute Laboratories) were injected in the right flank with 200 μL of a single-cell suspension of Panc02 cells in non-supplemented RPMI medium (1 × 10^6 cells per mouse). Treatment began when the mean tumor diameter was ~ 5 mm. […] Tumors were measured three times weekly in two dimensions with a digital caliper, and tumor volumes were calculated by the standard formula of Tumor Volume = Length x Width^2 × 0.5. All mice were euthanized when tumors reached a diameter of 15 mm or had ulcerated.

Series [4] can be described thus: Toxicity evaluation on mice not bearing tumor (CBC, serum chemistry, pathology). Conditions: for Off-target effects by necropsy and laboratory evaluations: naïve C57BL/6 mice, continuous daily treatment. The class given is in vivo, C57BL/6 mice. As for the experimental part:
[…] Mice from each treatment cohort were assessed for pathologic evaluation (Digestive Diseases Research Core Center at our institution). Blood was collected for complete blood count (CBC) and biochemical analysis (AST, ALT, BUN, total protein, glucose and Cr). Organs were examined grossly and histologically.

Another series has as its target sigma-2 receptor. Conditions: read-out: Affinity (Ki) σ2, cited from earlier work.
For series [5], the system named is Panc02 cells. Put plainly: ROS interference in cell viability (MTT with antioxidants). As to conditions: 24 h. Format: cell-based, mouse. The protocol:
The interference of ROS in cell viability was indirectly determined by MTT assay reported above at 24 h. On day 1, Panc02 cells were plated at a density of 2 × 10^4 cells/well in opaque 96-well, clear-bottom plates 24 h prior to treatment. On day 2, cells were treated with the drugs (50 μM) in the presence or absence of α-tocopherol (100 μM) or N-Acetyl-L-cysteine (100 μM). After incubation (24 h) with drugs, MTT assay was performed as above.

Series [6] deals with Panc02 cells. Put plainly: MitoSOX Red mitochondrial superoxide by flow cytometry, Panc02. The class given is cell-based, mouse. As to conditions: 2 h. As for the experimental part:
as §3

pEC50, pKi: −log10 of the molar value. Like-named read-outs stand apart in the source and are kept apart here.

One may read the pEC50 as −log10 of the EC50, conventionally taken in molar units. For orientation: pKi means the Ki on a negative log10 scale, so that one unit is a factor of ten. As for `c1ccc2c(c1)c1ccccc1n2CCCN1CCN(C2CCCCC2)CC1` [F281, 1-Cyclohexyl-4-[3-(9H-carbazol-9-yl)propyl]piperazine], the pEC50 in the series on Panc02 cells [1] was 4.43; in the series on KP02 cells, 4.31; with KP02 cells (Mus musculus, 24 h), about 4.35; with KCKO cells, 4.21; with MIAPaCa-2 cells it was 4.54; with BxPC3 cells [2], 4.38. For the same compound, the pEC50 is about 4.35 in the series on BxPC3 cells [2] (Homo sapiens, BXPC-3, 24 h); 4.01 in the series on AsPC-1 cells; under 4.00 in the series with Panc-1 cells. Moreover, the “Caspase-3 activation (in words)” value in the series with caspase-3 (200 μM, 5 h, compared to DMSO control) is listed as “did not activate at all”. Further, in the series on AsPC1 cells, the “Mitochondrial superoxide generation in AsPC1” value was “generated some mitochondrial superoxide”. The “Mitochondrial superoxide generation in BxPC3” value in the series with BxPC3 cells [3] is listed as “generated some mitochondrial superoxide”. Further, the “Effect on tumor volume (in words)” value in the series with Panc02 tumors (Panc02 s.c. in female C57BL/6) is listed as “did not confer a significantly different tumor volume than vehicle alone”. Further, the “Off-target effects by necropsy and laboratory evaluations” value in series [4] is given as “no major off-target effects”. For the same compound, the negative logarithm of the Ki (pKi) on sigma-2 receptor (ref Ferorelli et al., 2007 [27]) was 7.90.

As to `Fc1cccc(F)c1[C@H]1CC[C@@H](N2CCN(C3CCCCC3)CC2)CC1` [PB282], the negative logarithm of the EC50 (pEC50) was under 4.00 in the series with Panc02 cells [1]; under 4.00 in the series with KP02 cells (Mus musculus, 24 h); 4.05 with KCKO cells; 4.29 with MIAPaCa-2 cells; under 4.00 with BxPC3 cells [2] (Homo sapiens, BXPC-3, 24 h); under 4.00 in the series with AsPC-1 cells. In addition, in the series on Panc-1 cells, the pEC50 was under 4.00. Further, the “Increase of caspase-3 activity compared to cells treated with DMSO vehicle” value in the series on caspase-3 (200 μM, 5 h) was 11.8 fold. In addition, the “Cell death on co-treatment with NAC” value in the series with Panc02 cells [5] (Panc02 cells, ligand 50 μM with NAC 100 μM) is “even higher levels of cell death”. Besides, in the series with Panc02 cells [6] (Panc02 cells, 50 μM), the “Increase in MitoSOX fluorescence intensity compared to cells treated with DMSO” value was determined as 6.7 fold. Also, the “Effect on tumor volume (in words)” value in the series with Panc02 tumors (Panc02 s.c. in female C57BL/6) is listed as “decreased tumor volume similar to gemcitabine alone”. Besides, in the series on Panc02 tumors (Panc02 s.c. in female C57BL/6, i.p. daily for two weeks (gemcitabine once weekly), vehicle mean = 924 mm^3), the “Mean tumor volume following conclusion of treatment” value is on record as 483 mm^3. In addition, the Median survival in the series with Panc02 tumors (Panc02 tumor-bearing C57BL/6 mice, treatment discontinued on day 15, DMSO (vehicle) 23 days) is reported as 29 days. For the same compound, in series [4], the “Off-target effects by necropsy and laboratory evaluations” value is on record as “no major off-target effects”. The compound further had a Creatinine in [4] (not tumor-bearing C57BL/6 mice, n = 3, daily i.p., 5 days, control 0.34 ± 0.02) of 0.35 ± 0.03 mg/dL. For the same compound, in series [4] (not tumor-bearing C57BL/6 mice, n = 3, daily i.p., 5 days, control 5.6 ± 0.05), the AST is 5.5 ± 0.07 μ/L. For the same compound, the RBC in series [4] (not tumor-bearing C57BL/6 mice, n = 3, daily i.p., 5 days, control 7.14 ± 0.1) is recorded as 9.91 ± 0.31 10^6/μL. Moreover, the WBC in series [4] (not tumor-bearing C57BL/6 mice, n = 3, daily i.p., 5 days, control 10.58 ± 0.2) was 5.78 ± 0.78 10^3/μL. The HGB in [4] (not tumor-bearing C57BL/6 mice, n = 3, daily i.p., 5 days, control 10.7 ± 0.7) turned out to be 15 ± 0.4 g/dL. The compound further came in with an MCH in series [4] (not tumor-bearing C57BL/6 mice, n = 3, daily i.p., 5 days, control 15 ± 0.54) of 15.15 ± 0.05 pg. Moreover, the BUN in series [4] (not tumor-bearing C57BL/6 mice, n = 3, daily i.p., 5 days, control 27 ± 0.4) is recorded as 24.5 ± 0.5 mg/dL. The compound further had an MCHC in series [4] (not tumor-bearing C57BL/6 mice, n = 3, daily i.p., 5 days, control 29.2 ± 1.21) of 29.4 ± 0.3%. In [4] (not tumor-bearing C57BL/6 mice, n = 3, daily i.p., 5 days, control 36.6 ± 0.08), this compound registered an HCT of 51.1 ± 1.9%. Further, in series [4] (not tumor-bearing C57BL/6 mice, n = 3, daily i.p., 5 days, control 51.2 ± 0.32), the MCV turned out to be 51.55 ± 0.35 fL. For the same compound, in series [4] (not tumor-bearing C57BL/6 mice, n = 3, daily i.p., 5 days, control 260 ± 21), the ALT is 221 ± 63 μ/L. The Platelets in series [4] (not tumor-bearing C57BL/6 mice, n = 3, daily i.p., 5 days, control 486 ± 67) was 649.5 ± 167.5 10^3/μL. For the same compound, at sigma-2 receptor (ref Abate, et al., 2011 [28]), the pKi was 7.85.

On to `Cc1c(C)c2c(c(C)c1O)CC[C@@](C)(CCC[C@H](C)CCC[C@H](C)CCCC(C)C)O2` [α-tocopherol, reference compound], for which the “Effect on caspase activation caused by PB221 or PB282” value in the series with caspase-3 (Z-DEVD-FMK 1 μM or α-tocopherol given before PB221, PB282 (200 μM, 5 h)) is listed as “abrogates caspase-3 dependent cleavage”. Also, the “Protection against sigma-2 ligand induced cell death (Panc02 viability)” value in the series with Panc02 cells [5] (antioxidant 100 μM one hour prior to sigma-2 ligands 50 μM) is “protected against sigma-2 receptor ligands induced cell death”. In addition, the “Effect on mitochondrial superoxide production following sigma-2 ligands treatment” value with Panc02 cells [6] (all pancreatic cancer cell lines tested (Panc02, AsPC-1, KP02, BxPC3), sigma-2 ligands 50 μM, with α-tocopherol) is given as “strongly decreased”.
